# Laboratory results published in patent publication US20240092784A1, “CONDENSED HETEROCYCLIC COMPOUND” (NISSAN CHEMICAL CORPORATION, priority 2020, published 2024).
# pIC50: −log10 of the molar value. Structures can show the parent of a compound that is named as a salt.
# Target: human SPR (Homo sapiens (Human), UniProt P35270)
# Assay: Evaluation Example 2: Measurement of human SPR inhibitory activity (seven concentrations, sepiapterin absorbance at 420 nm)
# Format: biochemical
# Settings: Evaluation Example 2, seven concentrations 0.14 nM to 100 nM, 240 minutes at room temperature, read-out: IC50
# In short: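 His-tagged full-length human SPR (1-261) was expressed in E. coli and the tag removed. Enzyme at 150 ng/mL in 100 mM Tris-HCl pH 7.5/0.01% BSA was mixed with compound (0.14–100 nM, seven points), 120 μM sepiapterin and 160 μM NADPH, both as added-solution concentrations. After 240 min at room temperature, remaining sepiapterin was read at 420 nm to give percent inhibition.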
# human SPR, sequence (P35270 whole entry): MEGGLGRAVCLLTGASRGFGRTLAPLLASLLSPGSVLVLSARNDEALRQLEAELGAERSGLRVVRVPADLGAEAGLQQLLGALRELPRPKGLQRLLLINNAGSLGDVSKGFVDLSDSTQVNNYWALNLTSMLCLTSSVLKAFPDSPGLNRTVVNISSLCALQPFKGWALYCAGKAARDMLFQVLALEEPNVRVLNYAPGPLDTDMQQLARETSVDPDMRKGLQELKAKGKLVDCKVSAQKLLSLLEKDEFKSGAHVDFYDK
row,SMILES,pIC50
1,"CC1(Cn2c(=O)c(C(=O)NC3CC3)c(O)n3ncc(/C=C/C(=O)N4C5CCC4COC5)c23)CC1 [Synthesis Example 367, (E)-3-(3-(3-Oxa-8-azabicyclo[3.2.1]octan-8-yl)-3-oxoprop-1-en-1-yl)-N-cyclopropyl-7-hydroxy-4-((1-methylcyclopropyl)methyl)-5-oxo-4,5-dihydropyrazolo[1,5-a]pyrimidine-6-carboxamide]",9.21
2,"Cc1cc2n(CC(C)C)c(=O)c(C(=O)NC3CC3)c(O)n2n1 [Synthesis Example 319, N-Cyclopropyl-7-hydroxy-4-isobutyl-2-methyl-5-oxo-4,5-dihydropyrazolo[1,5-a]pyrimidine-6-carboxamide]",8.50
3,"Cc1nn2c(O)c(C(=O)NC3CC3)c(=O)n(CC(C)C)c2c1/C=C/C(=O)N1CC2C(C1)C2(F)F (stereo not shown) [compound 608, (E)-N-Cyclopropyl-3-(3-(6,6-difluoro-3-azabicyclo[3.1.0]hexan-3-yl)-3-oxoprop-1-en-1-yl)-7-hydroxy-4-isobutyl-2-methyl-5-oxo-4,5-dihydropyrazolo[1,5-a]pyrimidine-6-carboxamide]",8.97
4,"CN(C)/C=N/c1cc2n(CC(C)(C)C)c(=O)c(C(=O)NC3CC3)c(O)n2n1 [Synthesis Example 362, (E)-N-Cyclopropyl-2-(((dimethylamino)methylene)amino)-7-hydroxy-4-neopentyl-5-oxo-4,5-dihydropyrazolo[1,5-a]pyrimidine-6-carboxamide hydrochloride]",8.83
5,"CC(C)Cn1c(=O)c(C(=O)NC2CC2)c(O)n2ncc(/C=C/c3cnccn3)c12 [Synthesis Example 236, (E)-N-Cyclopropyl-7-hydroxy-4-isobutyl-5-oxo-3-(2-(pyrazin-2-yl)vinyl)-4,5-dihydropyrazolo[1,5-a]pyrimidine-6-carboxamide]",9.01
6,"CC(C)Cn1c(=O)c(C(=O)NC2CC2)c(O)n2ncc(/C=C/C3CCN(CC(F)(F)F)CC3)c12 [Synthesis Example 249, (E)-N-Cyclopropyl-7-hydroxy-4-isobutyl-5-oxo-3-(2-(1-(2,2,2-trifluoroethyl)piperidin-4-yl)vinyl)-4,5-dihydropyrazolo[1,5-a]pyrimidine-6-carboxamide]",8.57
7,"Cc1nnc(/C=C/c2cnn3c(O)c(C(=O)NC4CC4)c(=O)n(CC(C)C)c23)s1 [Synthesis Example 268, (E)-N-Cyclopropyl-7-hydroxy-4-isobutyl-3-(2-(5-methyl-1,3,4-thiadiazol-2-yl)vinyl)-5-oxo-4,5-dihydropyrazolo[1,5-a]pyrimidine-6-carboxamide]",8.98
8,"C/C(=C\c1cnn2c(O)c(C(=O)NC3CC3)c(=O)n(CC(C)C)c12)C(=O)N1CCOCC1 [Synthesis Example 254, (E)-N-Cyclopropyl-7-hydroxy-4-isobutyl-3-(2-methyl-3-morpholino-3-oxoprop-1-en-1-yl)-5-oxo-4,5-dihydropyrazolo[1,5-a]pyrimidine-6-carboxamide]",9.08
9,"Cc1cncnc1Nc1cc2n(CC(C)(C)C)c(=O)c(C(=O)NC3CC3)c(O)n2n1 [Synthesis Example 340, N-Cyclopropyl-7-hydroxy-2-((5-methylpyrimidin-4-yl)amino)-4-neopentyl-5-oxo-4,5-dihydropyrazolo[1,5-a]pyrimidine-6-carboxamide]",8.72
10,"CC(C)Cn1c(=O)c(C(=O)NC2CC2)c(O)n2ncc(/C=C/C(=O)N3CC[C@H](O)C3)c12 [compound 501, (S,E)-N-Cyclopropyl-7-hydroxy-3-(3-(3-hydroxypyrrolidin-1-yl)-3-oxoprop-1-en-1-yl)-4-isobutyl-5-oxo-4,5-dihydropyrazolo[1,5-a]pyrimidine-6-carboxamide]",9.15
11,"CC(C)Cn1c(=O)c(C(=O)NC2CC2)c(O)n2ncc(/C=C/C(=O)N(C3CC3)C3CC3)c12 [compound 515, (E)-N-Cyclopropyl-3-(3-(dicyclopropylamino)-3-oxoprop-1-en-1-yl)-7-hydroxy-4-isobutyl-5-oxo-4,5-dihydropyrazolo[1,5-a]pyrimidine-6-carboxamide]",9.08
12,"CC(C)(C)Cn1c(=O)c(C(=O)NC2CC2)c(O)n2nc(-c3cnccc3C#N)cc12 [Synthesis Example 294, 2-(4-Cyanopyridin-3-yl)-N-cyclopropyl-7-hydroxy-4-neopentyl-5-oxo-4,5-dihydropyrazolo[1,5-a]pyrimidine-6-carboxamide]",8.65
13,"CC(C)(C)Cn1c(=O)c(C(=O)NC2CC2)c(O)n2nc(-c3ccccn3)cc12 [Synthesis Example 299, N-Cyclopropyl-7-hydroxy-4-neopentyl-5-oxo-2-(pyridin-2-yl)-4,5-dihydropyrazolo[1,5-a]pyrimidine-6-carboxamide]",8.19
14,"Cc1nn2c(O)c(C(=O)NC3CC3)c(=O)n(CC(C)C)c2c1/C=C/C(=O)N1[C@H](C)COC[C@@H]1C [Synthesis Example 641, N-Cyclopropyl-3-((E)-3-(cis-3,5-dimethylmorpholino)-3-oxoprop-1-en-1-yl)-7-hydroxy-4-isobutyl-2-methyl-5-oxo-4,5-dihydropyrazolo[1,5-a]pyrimidine-6-carboxamide]",9.05
15,"Cc1nn2c(O)c(C(=O)NC3CC3)c(=O)n(CC(C)C)c2c1/C=C/C(=O)N1C2CCC1CC(F)(F)C2 [Synthesis Example 650, (E)-N-Cyclopropyl-3-(3-(3,3-difluoro-8-azabicyclo[3.2.1]octan-8-yl)-3-oxoprop-1-en-1-yl)-7-hydroxy-4-isobutyl-2-methyl-5-oxo-4,5-dihydropyrazolo[1,5-a]pyrimidine-6-carboxamide]",9.02
16,"CC(C)Cn1c(=O)c(C(=O)NC2CC2)c(O)n2ncc(/C=C/C(=O)N3C4CCC3COC4)c12 [compound 533, (E)-3-(3-(3-Oxa-8-azabicyclo[3.2.1]octan-8-yl)-3-oxoprop-1-en-1-yl)-N-cyclopropyl-7-hydroxy-4-isobutyl-5-oxo-4,5-dihydropyrazolo[1,5-a]pyrimidine-6-carboxamide]",9.19

# Same assay, conditions: sepiapterin absorbance, Table 41, read-out: concentration at 50% inhibition of human SPR (IC50)
row,SMILES,pIC50
1,"COC[C@H]1COCCN1C(=O)/C=C/c1c(C)nn2c(O)c(C(=O)NC3CC3)c(=O)n(CC(C)C)c12 [Synthesis Example 683, (S,E)-N-Cyclopropyl-7-hydroxy-4-isobutyl-3-(3-(3-(methoxymethyl)morpholino)-3-oxoprop-1-en-1-yl)-2-methyl-5-oxo-4,5-dihydropyrazolo[1,5-a]pyrimidine-6-carboxamide]",9.09
2,"Cc1nn2c(O)c(C(=O)NC3CC3)c(=O)n(CC(C)C)c2c1/C=C/C(=O)N1CCN(CC(F)(F)F)CC1 [Synthesis Example 685, (E)-N-Cyclopropyl-7-hydroxy-4-isobutyl-2-methyl-5-oxo-3-(3-oxo-3-(4-(2,2,2-trifluoroethyl)piperazin-1-yl)prop-1-en-1-yl)-4,5-dihydropyrazolo[1,5-a]pyrimidine-6-carboxamide]",8.91
3,"CC(C)Cn1c(=O)c(C(=O)NC2CC2)c(O)n2ncc(/C=C/C(=O)N3C[C@@H](C)OC[C@@H]3C)c12 [Synthesis Example 741, N-Cyclopropyl-3-((E)-3-((2R,5S)-2,5-dimethylmorpholino)-3-oxoprop-1-en-1-yl)-7-hydroxy-4-isobutyl-5-oxo-4,5-dihydropyrazolo[1,5-a]pyrimidine-6-carboxamide]",9.01
